Measurements: US20040019026A1, “Compounds useful for treating hypertriglyceridemia” (priority 2000, published 2004)

Tests used:
Female CD-1 mice = test: Dexamethasone-induced thymic and splenic atrophy, anti-glucocorticoid effect (Example 4); assay type: in vivo; conditions: 1.6 mg dexamethasone s.c., sacrifice about 24 hours later
Description: Female CD-1 mice were obtained from Charles River Laboratories, Kingston, N.Y. at 43-45 days of age. The mice were housed five per cage in plastic shoebox cages on corn cob bedding in the Fels Animal Facility at 72°±2° F. with 50%±5% humidity and twelve hours of alternate light and darkness. The mice had ad libitum access to Purina chain 5015 and acidified water for pretreatment.
Six days later, the mice were weighed, earmarked and redistributed into six groups for treatment: 1) a control group, 2) a group treated with dexamethasone (“DEX”), a glucocorticoid which induces thymic and splenic atrophy, 3) a group treated with 200 mg/kg 16α-fluoro-5-androsten-17-one (hereinafter “drug”), 4) a group treated with 400 mg/kg of, 5) a group treated with dexamethasone and 200 mg/kg drug and 6) a group treated with dexamethasone and 400 mg/kg drug. The treatment in the groups were as follows and were conducted simuitaneously.
The control group was intubated with 0.2 mL of sesame oil for three days. On the third day after commencement of the intubation, the mice were injected subcutaneously with 0.05 mL of absolute ethanol one hour after the last treatment with sesame oil.
The second group was intubated with 0.2 mL of sesame oil for three days. On the third day after the commencement of the intubation, the mice were injected subcutaneously with 1.6 mg of dexamethasone dissolved in 0.05 mL of absolute ethanol approximately one hour after the last treatment with sesame oil.
The third and fourth groups were intubated with 200 mg/Kg and 400 mg/Kg drug, respectively, suspended in 0.2 mL of sesame oil for three days. After commencement of the intubation, the mice were injected subcutaneously with 0.05 mL of absolute ethanol approximately one hour after the last treatment with sesame oil.
The fifth and sixth groups were intubated with 200 mg/kg and 400 mg/kg, respectively, of drug, suspended in 0.2 mL of sesame oil for three days. On the third day after commencement of the intubation, the mice were injected subcutaneously with 1.6 mg of dexamethasome dissolved in 0.05 mL of absolute ethanol approximately one hour after the last treatment with sesame oil.
All of the mice were sacrificed by an overdose of CO2 approximately 24 hours after the injection of ethanol (first, third and fourth groups) or approximately 24 hours after injection with dexamethasone (second, fifth and sixth groups). The mice were weighed and the thymus was excised, cleaned of adventia, rinsed in phosphate-buffered saline (P.B.S.), blotted and weighed. The spleen was also excised, cleaned, rinsed, blotted and weighed.

[1] = background statement; cited from earlier work

Row | Structure (SMILES) | Spleen Wt. (Female CD-1 mice) [mg] | Thymus Wt. (Female CD-1 mice) [mg] | Effect on HDL levels [1] | Effect on insulin resistance [1] | Lowering of triglycerides [1] | Side effects [1]
1 | C[C@@H]1C[C@H]2[C@@H]3CCC4=CC(=O)C=C[C@]4(C)[C@@]3(F)[C@@H](O)C[C@]2(C)[C@@]1(O)C(=O)CO [DEX, dexamethasone, reference compound] | 45.2 ± 7.5 | 36.8 ± 7.1 |  |  |  | 
2 | Cc1ccc(C)c(OCCCC(C)(C)C(=O)O)c1 [Gemfibrozil, gemfibrozil] |  |  | modestly raises HDL levels | no effect on insulin resistance | 25-35% | 
3 | O=C(O)c1cccnc1 [Nicotinic acid, nicotinic acid] |  |  |  | worsens insulin resistance |  | intense flushing and associated pruritus
